Results reported in US20180087086A1, “CELL EGRESS AND INVASION INHIBITORS AND THEIR USE AS ANTIPARASITICAL AGENTS” (THE JOHNS HOPKINS UNIVERSITY, priority 2015, published 2018).

Legend:
[1] = tested on: P. falciparum sporozoites; test: dose-dependent killing of P. falciparum sporozoites; assay type: cell-based; settings: Plasmodium falciparum
From the text: Observed phenotype at lower concentration pinpoints towards an on-target effect of the compounds.

[2] = tested on: P. berghei parasites constitutively expressing mCherry; test: live imaging of mCherry expressing sporozoite gliding; assay type: cell-based; settings: for average gliding velocity: DMSO control 2.58+/−0.05 um/s; for total time spent gliding: 200 frame movies, control 46 frames; for pausing, fraction of active gliding time: control 7%; for waving sporozoites: manual assignment from z-stacks, control 15% waving
From the text: To determine the compound effects on the speed of gliding and type of gliding movement, live imaging of mCherry expressing parasites was used. P. berghei parasites constitutively expressing mCherry were allowed to settle on slides and imaged using an inverted microscope at 1.57 fps. ImageJ and the ToAST plugin were used to track parasites for a minimum of 150 frames in the 200 frame movies. The coordinates obtained via the automated tracking were much more useful than those using manual tracking. The ToAST plugin provides automatic identification of sporozoites from debris by aspect ratio and pixel analysis. The program also measures velocity and determine whether sporozoites are gliding in counterclockwise (CCW) or clockwise (CW) patterns, or whether they are stationary or waving, with large changes in vector angles between images.
Instead, the output position data was reanalyzed using similar algorithms as defined by ToAST. Sporozoites were assigned to one of four states at each time point, CW gliding, CCW gliding, stationary, or waving. To determine the speed of gliding, the average velocity was determined for sections of time in which the sporozoite was gliding continuously for more than 6 frames. Sporozoites would often glide for a number of frames and then stop gliding for a number of frames before continuing movement, resulting in more than one block of frames representing continuous gliding. The average for each sporozoite was a weighted average of the average speed during each block of gliding. The DMSO control parasites traveled in a CCW and CW pattern at an average speed of 2.58+/−0.05 um/s. […] Compound 4 gliding information was collected at a lower concentration compared to compound 18 because it was not possible to obtain a sufficient number of circularly gliding parasites for analysis at the higher concentrations (FIG. 11A).
As previously mentioned, sporozoites would often glide for several frames, then stop or pause, and then continue gliding. Upon initial observation of compound 4 samples, it was observed that parasites tended to glide in a stop-and-go manner, gliding for 4-6 frames and then stopping for 2-3 frames. To determine whether these pauses deviated from those observed in the control, the movies were analyzed to determine the total amount of time spent circularly gliding over the course of the 200 frame movies (FIG. 11C). Additionally, the fraction of time that the sporozoites paused for during active gliding was measured (FIG. 11D). A pause was defined as a cessation of circular gliding for no more than 10 frames. The fraction of paused frames to moving frames was measured for stretches of active gliding. […] Compound 4 increased pausing to 32% of the active gliding time, while compound 18 increased pauses to just 16% (FIG. 11D).
Z-stack images were created using ImageJ using the average intensity in each frame. From these frames, patterns of movements to one of two categories were assigned, circular gliding or waving. Waving sporozoites are defined as having on end attached while the other end moves or waves freely (FIG. 11F), resulting in large angular changes in the direction of the vector that lies along the sporozoite. Both compound 4 and 18 changed the ratio between gliding and waving sporozoites. In the control, nearly 85% of sporozoites are gliding circularly and 15% waving, whereas 72% and 66% are waving in compound 4 and 18 samples, respectively.

[3] = target: TRAP interaction with aldolase (Plasmodium falciparum, UniProt Q7KQL9); test: TRAP-aldolase interaction via SPR; assay type: binding, P. falciparum; settings: as a function of compound concentration
Sequence of TRAP interaction with aldolase (Q7KQL9 whole entry): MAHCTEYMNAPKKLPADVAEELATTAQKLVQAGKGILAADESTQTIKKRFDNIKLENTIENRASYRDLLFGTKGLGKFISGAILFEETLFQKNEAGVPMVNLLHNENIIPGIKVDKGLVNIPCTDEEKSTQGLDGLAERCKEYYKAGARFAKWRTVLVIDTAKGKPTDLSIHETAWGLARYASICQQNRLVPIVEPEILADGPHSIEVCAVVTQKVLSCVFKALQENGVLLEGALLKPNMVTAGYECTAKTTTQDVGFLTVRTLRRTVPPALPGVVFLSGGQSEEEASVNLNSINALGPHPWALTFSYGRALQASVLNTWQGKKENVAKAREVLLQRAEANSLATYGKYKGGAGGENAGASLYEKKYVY
Sequence of TRAP interaction with aldolase (P16893 516-559, further chain): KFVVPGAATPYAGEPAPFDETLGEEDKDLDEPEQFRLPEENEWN
Protocol: (§1) FIG. 5A (Top) TRAP and FIG. 5B (Bottom) MTRAP show the interaction with aldolase in the presence of compounds 4 and 18 as a function of compound concentration as measured via SPR.
(§2) The dissociation constant for PfAldolase and PfTRAP, MTRAP and PvTRAP was measured by determining the binding response at various concentrations of aldolase passed over a chip with bound, biotinylated peptides (FIG. 3). Dissociation constants were in the mid-nanomolar range and matched with values previously reported in the literature (Boucher LE and Bosch J, J. Mol Recognit. 2013 Oct. 26(10): 496-500).
(§3) (FIG. 5A) TRAP and (FIG. 5B) MTRAP interaction with aldolase in the presence of compounds 4 and 18 is illustrated as a function of compound concentration as measured via SPR.

sporozoites [4] = test: sporozoite viability, propidium iodide exclusion assay; assay type: cell-based; settings: 10 min at 18° C. then 15 min at 37° C., DMSO 85%, read-out: sporozoite viability (PI exclusion)
Protocol: FIG. 12A-FIG. 12C is a series of bar charts that show results of sporozoite viability assays. […] The total number of sporozoites was determined from phase images and the number of non-viable sporozoites from the count of red fluorescing sporozoites.
To determine if the compounds' mode of action was by causing cell death, viability assays to look at compound effects were performed. In a first test of viability, a propidium iodide exclusion assay was used (FIG. 12A). The total number of sporozoites was determined from in phase imaging and the number of non-viable sporozoites from the count of red fluorescing sporozoites. […] 250 μM of compound 4 reduced viability to 79% while compound 18 indicated a protective effect with 93% viability.

P. berghei sporozoites = test: in vitro sporozoite gliding assay (CSP trails on anti-CSP coated slides); assay type: cell-based; settings: for effect on gliding motility (comparison among the five compounds): 250-31.25 μM; for share of gliding sporozoites that were low gliding (less than 10 trails) / sporozoites gliding: lowest concentration of compound (31.25 μM)
Protocol: Compounds selected from the initial hit list were tested using in vitro gliding assays. Five compounds were selected for dose dependent testing on gliding motility based on early crystallographic experiments and first round gliding assay experiments at high concentration.
P. berghei sporozoites were purified from mosquitoes, incubated with compound, and allowed to glide on anti-CSP coated slides. The CSP-trails deposited by the gliding parasites were detected with anti-CSP antibodies. Trails were quantified for each sporozoite. The ability of each sporozoite to glide was categorized as no gliding (0 trails), and low (<10 trails), medium (10-20 trails), and high gliding (>20 trails).
In the DMSO control, more than 90% of sporozoites deposited trails, with >60% classified as medium and high gliding (>10 trails). […] At lower concentrations of compounds, the sporozoites did start to recover their gliding ability. However, for compound 4 at the lowest concentration of compound, less than 60% of the sporozoites were gliding and when they did glide, 90% of those sporozoites were depositing less than 10 trails and upon inspection of multiple fields, they typically could only complete one circular trail. For compound 18, less than 25% of sporozoites were able to glide at the lowest compound concentration and 75% of those sporozoites were low gliding, with less than 10 trails deposited; however, these low gliding parasites typically deposited more than 1 trail, unlike those from compound 4. […] However, from this single assay, it is not possible to assess whether the compounds were directly affecting the motor through the proposed TRAP-Aldolase interaction, by affecting an energy production step necessary to generate ATP for motor power, or by cytocidal effect.

[5] = target: MTRAP interaction with aldolase (Plasmodium falciparum, UniProt Q7KQL9); test: MTRAP-aldolase interaction via SPR; assay type: binding, P. falciparum; settings: as a function of compound concentration
Sequence of MTRAP interaction with aldolase (Q7KQL9 whole entry): as the sequence (Q7KQL9 whole entry) above
Protocol: as §1, §2, §3

sporozoites [6] = test: sporozoite viability, LIVE/DEAD fixable violet assay; assay type: cell-based
From the text: However, the viability decrease is not high enough to account for the levels of non-gliding sporozoites observed in the gliding assays.

SMILES | EC90 [1] | average gliding velocity ([2]; 3.9 μM) | total time spent gliding [2] | pausing, fraction of active gliding time [2] | waving sporozoites [2] | binding interaction of TRAP with aldolase in presence of compound [3] | viability at 250 µM (sporozoites [4]) | effect on gliding motility (comparison among the five compounds) (P. berghei sporozoites) | share of gliding sporozoites that were low gliding (less than 10 trails) (P. berghei sporozoites) | sporozoites gliding (P. berghei sporozoites) | binding interaction of MTRAP with aldolase in presence of compound [5] | effect on viability in LIVE/DEAD assay (sporozoites [6]) | average gliding velocity ([2]; 62.5 μM)
Brc1ccc(Nc2nc3ccccc3nc2Nc2ccc(Br)cc2)cc1 [Compound 4, N,N′-bis(4-bromophenyl)-2,3-quinoxalinediamine] | ~125 µM | 1.81+/−0.09 um/s | 25 frames | 32% | 72% | Increased binding interaction | 79% | greatest effect | 90% | less than 60% | Increased binding interaction | greater decrease in viability | –
CCCCn1c(N)c(C(=O)NCc2ccccc2)c2nc3ccccc3nc21 [Compound 18, 2-amino-N-benzyl-1-butyl-1H-pyrrolo[2,3-b]quinoxaline-3-carboxamide] | ~30 µM | – | 16 frames | 16% | 66% | Increased binding interaction | 93% | greatest effect | 75% | less than 25% | Increased binding interaction | relatively mild | 1.88+/−0.17 um/s
